The target in experiment [1] is T1, C3a receptor (Homo sapiens, UniProt Q16581).
T1 sequence (Q16581 1-482): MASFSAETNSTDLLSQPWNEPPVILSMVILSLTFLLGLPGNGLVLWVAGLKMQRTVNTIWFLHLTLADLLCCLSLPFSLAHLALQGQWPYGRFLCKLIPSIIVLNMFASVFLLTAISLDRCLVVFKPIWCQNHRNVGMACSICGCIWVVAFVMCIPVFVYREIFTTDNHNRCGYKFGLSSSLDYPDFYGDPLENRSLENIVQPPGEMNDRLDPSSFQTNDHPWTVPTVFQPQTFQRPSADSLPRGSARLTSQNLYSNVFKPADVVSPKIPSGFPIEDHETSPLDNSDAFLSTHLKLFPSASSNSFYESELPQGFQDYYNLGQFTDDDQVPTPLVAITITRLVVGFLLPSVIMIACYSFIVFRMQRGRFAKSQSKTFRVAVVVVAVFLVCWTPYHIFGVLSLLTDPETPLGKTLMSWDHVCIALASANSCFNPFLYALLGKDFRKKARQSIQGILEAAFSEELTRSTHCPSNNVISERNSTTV
The experiment can be described thus: Ca2+-flux assay of C3a receptor antagonism in transfected HEK293 cells. The class given is cell-based. The following applies: antagonist 10 nM, mouse TLQP-21 1 μM, 15 minutes preincubation, HEK293 with C3a receptor and GNA16 vectors, vs control; FIG. 6.
Protocol: In the following evaluation, Compound 1 and Compound 2 were dissolved in DMSO and diluted with HBSS as appropriate.
Human Embryonic Kidney cells 293 (HEK293) were used, transfected with the expression vectors necessary for evaluation according to the following.
A transfection solution was prepared by sequentially adding C3a receptor expression vector, GNA16 expression vector, and PEI-MAX (PolyScience) solution to serum-free DMEM medium, mixing well, and then allowing it to stand at room temperature for 20 minutes. […]
The cells for evaluating C3a receptor response described above were seeded in a 96-well Black Polystyrene Microplate (Thermo fisher scientific) precoated with Poly-L-Ornithine Solution (FUJIFILM Wako Pure Chemical). […] After 15 minutes, a mouse TLQP-21 solution was added for C3a receptor stimulation, and the Ca^2+ influx associated with the stimulation was measured over time as intracellular fluorescence intensity (Ex: 494 nm, Em: 525 nm). The value obtained by subtracting the measured value when HBSS was added instead of mouse TLQP-21 solution (blank) was used as the measured value. The C3a receptor antagonist solution and mouse TLQP-21 solution were added after adjusting their concentrations by appropriately diluting them so that their final concentrations when measuring fluorescence intensity were 10 nM and 1 μM, respectively. […]

Experiment [2] relates to AD model mice (NC/Nga, mite allergen-induced). The experiment can be described thus: Amelioration of pruritus in AD model mice (scratching behavior, MicroAct). The format is in vivo, mouse. The following applies: 200 μL subcutaneous, 0.5 mg/mL Compound 1 or 0.05 mg/mL Compound 2, three times a week; measured 3 hours; vs solvent alone; FIG. 7. The protocol: Seven-week-old female NC/Nga mice were used. Preparation of AD model mice: The back of the neck was shaved, and 100 mg of an ointment containing mite allergen: Biostir AD (Biostir Inc.) was applied to the back of the neck and auricular region under isoflurane anesthesia for initial sensitization. Four days after the first application of the ointment containing mite allergen, 150 μL of 4% (w/v) SDS solution and 100 mg of ointment containing mite allergen were applied to the back of the neck and auricular region under isoflurane anesthesia. Thereafter, the same procedure was performed four times at a frequency of once every 3 to 4 days to induce AD-like dermatitis.
Compound 1 or Compound 2, whose C3a receptor antagonism was confirmed in Example 4 above, was used as a C3a receptor antagonist. Compound 1 or Compound 2 was dissolved in saline containing 20% polyethylene glycol 400, of which 200 μL was administered subcutaneously to the back of the neck. The control group was administered with the same amount of only the above solvent. The concentration of the C3a receptor antagonist solution was set at 0.5 mg/mL for Compound 1 and 0.05 mg/mL for Compound 2. […]
Four days after the last application of the ointment containing mite allergen, the scratching behavior was measured for 3 hours after the last administration of the sample. […]

Experiment [3] concerns AEW model mice (C57BL/6J). The experiment can be described thus: Amelioration of pruritus in AEW model mice (scratching behavior, MicroAct). The format is in vivo, mouse. Conditions: 200 μL subcutaneous, 0.5 mg/mL Compound 1 or 0.05 mg/mL Compound 2, once daily for 8 days; measured 3 hours; vs solvent alone; FIG. 8. An excerpt: The animals used were male C57BL/6J mice.
Preparation of AEW model: The back of the neck was shaved, and absorbent cotton soaked with a 1:1 (v/v) mixture of acetone and diethyl ether was applied and allowed to stand for 15 seconds. Immediately thereafter, absorbent cotton soaked with water was applied for 30 seconds. This treatment was repeated twice/day (morning and evening) for 7 days.
Compound 1 or Compound 2, whose C3a receptor antagonism was confirmed in Example 4 above, was used as a C3a receptor antagonist. Compound 1 or Compound 2 was dissolved in saline containing 20% polyethylene glycol 400, of which 200 μL was administered subcutaneously to the back of the neck. The control group was administered with the same amount of only the above solvent. The concentration of the C3a receptor antagonist solution was set at 0.5 mg/mL for Compound 1 and 0.05 mg/mL for Compound 2. Sample administration started after the first AEW treatment and was performed at a frequency of once daily for 8 days.
Sixteen hours after the last AEW treatment, the scratching behavior was measured for 3 hours after the last administration of the sample. MicroAct (Neuroscience) was used to measure the scratching behavior.

Each structure is given as a SMILES string.

From patent US20240415807A1, “AGENT FOR PREVENTING OR AMELIORATING PRURITUS” (KAO CORPORATION, priority 2021, published 2024) come the findings set out here.

On to `N=C(N)NCCC[C@H](NC(=O)c1ccc(C(c2ccccc2)c2ccccc2)s1)C(=O)O` [Compound 1, L-arginine, N2-[[5-(diphenylmethyl)-2-thienyl]carbonyl]], for which the “Fluorescence intensity due to C3a receptor stimulation by TLQP-21 (integrated over 3 min)” value in experiment [1] is listed as “greatly suppressed”. In experiment [2], the “Scratching behavior in AD model mice” value is on record as “significant decrease in scratching behavior”. Besides, the “Scratching behavior in AEW model mice” value in experiment [3] is recorded as “significant decrease in scratching behavior”.
As to `Cc1cc(C(c2ccc(Cl)cc2)c2ccc(Cl)cc2)sc1C(=O)N[C@@H](CCCNC(=N)N)C(=O)O` [Compound 2, L-arginine, N2-[[5-[bis(4-chlorophenyl)methyl]-3-methyl-2-thienyl]carbonyl]], the “Fluorescence intensity due to C3a receptor stimulation by TLQP-21 (integrated over 3 min)” value in experiment [1] is recorded as “greatly suppressed”. Besides, the “Scratching behavior in AD model mice” value in experiment [2] is listed as “significant decrease in scratching behavior”. For the same compound, the “Scratching behavior in AEW model mice” value in experiment [3] is on record as “significant decrease in scratching behavior”.
